# From patent US9713591B2, “Composition of matter comprising liposomes embedded in a polymeric matrix and methods of using same” (Yissum Research Development Company of the Hebrew …, priority 2008, dated 2017)
# Where “and” joins values, the source holds several entries; their conditions need not be identical. Identical values can stand only once. Counter-ions that a name gives are not always drawn.
# Assays:
# male Swiss-Webster mice [1] = assay: Analgesic efficacy in mouse model: electrical stimulation of abdominal skin, vocalization threshold, analgesia score and duration; assay type: in vivo; set-up: key to analgesia score, 15 min / analgesia score, 30 min / analgesia score, 45 min / analgesia score, 60 min / analgesia score, 75 min / analgesia score, 90 min / analgesia score, 105 min / analgesia score, 120 min / analgesia score, 135 min: 1 = analgesia; 0 = no analgesia; 10 = partial analgesia
# Excerpt: Analgesic efficacy in male Swiss Webster mouse model: Testing for analgesia was done by electrical stimulation of mice skin as described elsewhere (G. J. Grant et al, Pharmaceutical Research, 18, no 3, 336-343, 2001). Pain as electrical stimulation at the desired intensity was inflicted to the skin of shaved mice abdomen. The current generator (model S48, Grass Instruments (W. Warwick, R.I. USA) was used. Mice (male Swiss-Webster, 26±3 gr (n=7 per group) were used. The mice were shaved the hair overlying the abdomen and tested prior to injection to determine the Individual vocalization threshold of each mice. Than the mice were injected with (0.3-0.4 ml of one of the following: free bupivacaine, or LMVV-BUP or various LMVV entrapped in Ca-alginate or chitosan-oxalate cross linked hydrogels through 30G needle. The analgesia duration was than followed as specified in the experiment itself. All experiments were approved and ratified by the HUJI ethic committee.
# Analysis of the in vivo mice analgesia: A numerical score to the spreadsheet was introduced for the evaluation of the analgesic effect of various liposome preparations performance in vivo: For each time period (e.g. 4 hrs, 8 hrs etc) a numeric value to each mouse in the experiment was given. If the anesthesia was complete the numeric value given was 1.0; when analgesia was partial (incomplete) it received the numeric value of 10.0 in the Table 1 and in other Tables a score of 0.5 and for no anesthesia the numeric score was 0. The mean for each subgroup was calculated separately (i.e. 1% 300 μl, 2%[…]).
# Testing for analgesia was done by electrical stimulation of the skin directly overlying the abdomen at the site of injection using a current generator (model S48, Grass Instruments) as described in Grant et al 2001. (G. J. Grant et al, pharmaceutical research, vol 18, no 3, 336-343, 2001), and in Methods above.
# Mice (male Swiss-Webster 26±3 gr) were tested prior to injection to determine the vocalization threshold than were injected with liposomal BUP or free BUP than followed by determination of analgesia duration (The duration of the main in vivo screening study was 2 days and started after a preliminary study using two different injection volumes of formulation #4 (referred to as the PILOT in Table 9A) was performed. […]
# Testing for analgesia was performed by electrical stimulation of mice skin as described elsewhere (G. J. Grant et al, Pharmaceutical Research, 18, no 3, 336-343, 2001). Pain by electrical stimulation at the desired intensity was applied to the skin of shaved mice abdomen. The current generator (model S48, Grass Instruments (W. Warwick, R.I. USA) was used. Mice (male Swiss-Webster, 26±3 gr (n=8 per group) were used. The mice were shaved the hair overlying the abdomen and tested prior to injection to determine the Individual vocalization threshold of each mice. Than the mice were injected through 30G needle with 0.25 ml of one of the following formulation: • 1—Alginate beads containing LMVV-BUP (010609), were stored at 4 c for 2 months in 0.5% bup, PH=5.5 (see B3). The external solution of the beads were removed before injection without washing them. • 2—Alginate beads containing LMVV-BUP (010609), were stored at 4 c for 2 months in 2% bup, PH=5.5 (see B3). The external solution of the beads were removed and the beads washed (2.5 ml saline×5) before injection. • 3—Alginate beads containing LMVV-BUP (010609), were stored at 4 c for 2 months in 1% bup, PH=5.5 (see B3). The external solution of the beads were removed before injection without washing them. • 4—Alginate beads containing LMVV-BUP (010609), were stored at 4 c for 2 months in saline, PH=5.5 (see B3). The external solution of the beads were removed before injection without washing them. • 5—LMVV-BUP (010609) were stored at 4 c for 2 months in saline PH=5.5. • 6—BLANK: Aginate beads containing LMVV without bup, were stored at 4 c for 2 months in saline PH=5.5. […]
# male Swiss-Webster mice [2] = details: previously determined (Grant et al. 2004, U.S. Pat. No. 6,162,462); cited from earlier work
# [3] = cited from earlier work
# [4] = Bup Conc 0.25%, Volume 150 ul, 0.375 mg Bup, individual mice
# [5] = Bup Conc 0.25%, Volume 150 ul, 0.375 mg Bup, individual mice, hydrochloride
# [6] = Bup Conc 0.25%, Volume 300 ul, 0.75 mg Bup, individual mice
# [7] = Bup Conc 0.25%, Volume 300 ul, 0.75 mg Bup, individual mice, hydrochloride
# [8] = Bup Conc 0.50%, Volume 150 ul, 0.75 mg Bup, individual mice
# [9] = Bup Conc 0.50%, Volume 150 ul, 0.75 mg Bup, individual mice, hydrochloride
smiles,measurement,setting,value
"CCCCN1CCCCC1C(=O)Nc1c(C)cccc1C (stereo not shown) [Standard Bupivacaine, Bupivacaine hydrochloride]","analgesia score, 15 min",male Swiss-Webster mice [1]; [4],1
same,"analgesia score, 30 min",male Swiss-Webster mice [1]; [4],1
same,"analgesia score, 45 min",male Swiss-Webster mice [1]; [4],1
same,"analgesia score, 90 min",male Swiss-Webster mice [1]; [4],0
same,"analgesia score, 60 min",male Swiss-Webster mice [1]; [5],0 (5×) and 1 (2×) and 10
same,"analgesia score, 75 min",male Swiss-Webster mice [1]; [5],0 (7×) and 10
same,"analgesia score, 15 min",male Swiss-Webster mice [1]; [6],1
same,"analgesia score, 30 min",male Swiss-Webster mice [1]; [6],1
same,"analgesia score, 45 min",male Swiss-Webster mice [1]; [6],1
same,"analgesia score, 60 min",male Swiss-Webster mice [1]; [6],1
same,"analgesia score, 135 min",male Swiss-Webster mice [1]; [6],0
same,"analgesia score, 75 min",male Swiss-Webster mice [1]; [7],0 and 1 (7×)
same,"analgesia score, 90 min",male Swiss-Webster mice [1]; [7],0 and 1 (5×) and 10 (2×)
same,"analgesia score, 105 min",male Swiss-Webster mice [1]; [7],0 (5×) and 10 and 1 (2×)
same,"analgesia score, 120 min",male Swiss-Webster mice [1]; [7],0 (7×) and 10
same,"analgesia score, 15 min",male Swiss-Webster mice [1]; [8],1
same,"analgesia score, 30 min",male Swiss-Webster mice [1]; [8],1
same,"analgesia score, 45 min",male Swiss-Webster mice [1]; [8],1
same,"analgesia score, 105 min",male Swiss-Webster mice [1]; [8],0
same,"analgesia score, 60 min",male Swiss-Webster mice [1]; [9],1 (7×) and 10
same,"analgesia score, 75 min",male Swiss-Webster mice [1]; [9],1 (6×) and 0 and 10
same,"analgesia score, 90 min",male Swiss-Webster mice [1]; [9],0 (4×) and 10 (2×) and 1 (2×)
same,"analgesia score, 15 min","male Swiss-Webster mice [1]; per mouse, free BUP 0.25%, 150 ul, 0.375 mg Bup, 15 min",1
same,"analgesia score, 30 min","male Swiss-Webster mice [1]; per mouse, free BUP 0.25%, 150 ul, 0.375 mg Bup, 30 min",1
same,"analgesia score, 45 min","male Swiss-Webster mice [1]; per mouse, free BUP 0.25%, 150 ul, 0.375 mg Bup, 45 min",1
same,"analgesia score, 60 min","male Swiss-Webster mice [1]; per mouse, free BUP 0.25%, 150 ul, 0.375 mg Bup, 60 min, hydrochloride",0 (5×) and 1 (2×) and 10
same,"analgesia score, 75 min","male Swiss-Webster mice [1]; per mouse, free BUP 0.25%, 150 ul, 0.375 mg Bup, 75 min, hydrochloride",0 (7×) and 10
same,"analgesia score, 90 min","male Swiss-Webster mice [1]; per mouse, free BUP 0.25%, 150 ul, 0.375 mg Bup, 90 min",0
same,"analgesia score, 15 min","male Swiss-Webster mice [1]; per mouse, free BUP 0.25%, 300 ul, 0.75 mg Bup, 15 min",1
same,"analgesia score, 30 min","male Swiss-Webster mice [1]; per mouse, free BUP 0.25%, 300 ul, 0.75 mg Bup, 30 min",1
same,"analgesia score, 45 min","male Swiss-Webster mice [1]; per mouse, free BUP 0.25%, 300 ul, 0.75 mg Bup, 45 min",1
same,"analgesia score, 60 min","male Swiss-Webster mice [1]; per mouse, free BUP 0.25%, 300 ul, 0.75 mg Bup, 60 min",1
same,"analgesia score, 75 min","male Swiss-Webster mice [1]; per mouse, free BUP 0.25%, 300 ul, 0.75 mg Bup, 75 min, hydrochloride",0 and 1 (7×)
same,"analgesia score, 90 min","male Swiss-Webster mice [1]; per mouse, free BUP 0.25%, 300 ul, 0.75 mg Bup, 90 min, hydrochloride",0 and 1 (5×) and 10 (2×)
same,"analgesia score, 105 min","male Swiss-Webster mice [1]; per mouse, free BUP 0.25%, 300 ul, 0.75 mg Bup, 105 min, hydrochloride",0 (5×) and 10 and 1 (2×)
same,"analgesia score, 120 min","male Swiss-Webster mice [1]; per mouse, free BUP 0.25%, 300 ul, 0.75 mg Bup, 120 min, hydrochloride",0 (7×) and 10
same,"analgesia score, 135 min","male Swiss-Webster mice [1]; per mouse, free BUP 0.25%, 300 ul, 0.75 mg Bup, 135 min",0
same,"analgesia score, 15 min","male Swiss-Webster mice [1]; per mouse, free BUP 0.50%, 150 ul, 0.75 mg Bup, 15 min",1
same,"analgesia score, 30 min","male Swiss-Webster mice [1]; per mouse, free BUP 0.50%, 150 ul, 0.75 mg Bup, 30 min",1
same,"analgesia score, 45 min","male Swiss-Webster mice [1]; per mouse, free BUP 0.50%, 150 ul, 0.75 mg Bup, 45 min",1
same,"analgesia score, 60 min","male Swiss-Webster mice [1]; per mouse, free BUP 0.50%, 150 ul, 0.75 mg Bup, 60 min, hydrochloride",1 (7×) and 10
same,"analgesia score, 75 min","male Swiss-Webster mice [1]; per mouse, free BUP 0.50%, 150 ul, 0.75 mg Bup, 75 min, hydrochloride",1 (6×) and 0 and 10
same,"analgesia score, 90 min","male Swiss-Webster mice [1]; per mouse, free BUP 0.50%, 150 ul, 0.75 mg Bup, 90 min, hydrochloride",0 (4×) and 10 (2×) and 1 (2×)
same,"analgesia score, 105 min","male Swiss-Webster mice [1]; per mouse, free BUP 0.50%, 150 ul, 0.75 mg Bup, 105 min",0
same,duration of analgesic effect post injection,male Swiss-Webster mice [2],approximately 75 minutes
same,solubility limit of bupivacaine at pH 5.5,"[3]; 25° C., pH 5.5",below 2.9%
same,solubility of bupivacaine 25° C. at pH 2.0,[3]; pH 2.0,7.5%
same,mass solubility of bupivacaine at 25° C. in pH 5,[3]; pH 5,2.9%
same,mass solubility of bupivacaine at 25° C. in pH 6,[3]; pH 6,0.55%
